Measured values taken from patent EP4813991A1 (iLeadBMS Co., Ltd., priority 2023, dated 2025).

Experiments:
Assay type in all cases: cell-based
CDK12 = CDK12 (Homo sapiens, UniProt Q9NYV4); test: Cellular CDK12 inhibitory activity assay (Ser2 phosphorylation of RNA polymerase II subunit B1 CTD in MDA-MB-231 cells); set-up: using MDA-MB-231 breast cancer cells; endogenous in cells; host or cells: MDA-MB-231; settings: MDA-MB-231 cells, 6 hours treatment; read-out: pRpbl CTD S2 IC50
Procedure, shortened: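 MDA-MB-231 cells in L-15 with 10 % FBS were treated with compound at 9 concentrations for 6 h at 37 °C, 0 % CO2. In-Cell Western read phospho-Ser2 and total RNA polymerase II CTD on a Li-COR Odyssey; IC50 from 4-parameter dose-response fit.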

BT-20 cells = test: Breast cancer cell proliferation inhibitory activity, BT-20; settings: Homo sapiens, 72 hours, CellTiter Glo, relative IC50
Protocol: Experiments were conducted using three types of breast cancer cell lines to measure the cell proliferation inhibitory ability of each Example compound. For HCC70 cells, 100 µL of cell suspension was dispensed into a 96-well plate using RPMI1640 (Invitrogen) medium containing 10 % FBS, followed by incubation in a cell incubator at 37 °C and 5 % CO2. For BT-20 cells, 100 µL of cell suspension was dispensed into a 96-well plate using EMEM (Invitrogen) medium containing 10 % FBS, followed by incubation in a cell incubator at 37 °C and 5 % CO2. For MDA-MB-436 cells, 100 µL of cell suspension was dispensed into a 96-well plate using L-15 (Invitrogen) medium containing 10 % FBS, followed by incubation in a cell incubator at 37 °C and 0 % CO2. The next day, each Example compound dissolved and diluted in DMSO across 9 concentration ranges and a DMSO control group were treated on the cells for 72 hours. After completion of the compound treatment, 100 µL of CellTiter Glo (Promega) reagent was added to each well of the 96-wellplate, followed by shaking for 10 minutes and standing at room temperature for 10 minutes. After inserting the 96-well plate into an Envision plate reader (PerkinElmer), luminescence signals were measured. Relative IC50 values were calculated by fitting a dose-response curve using XL fit (IDBS Ltd) software.
The breast cancer cell proliferation inhibitory activities of the Example compounds measured by the method described above were evaluated according to the following criteria, and the results are presented in Table 15.

SNU-1 = test: Gastric cancer cell proliferation inhibitory activity (CellTiter Glo), SNU-1; settings: Homo sapiens, SNU1, 72 hours, relative IC50
Protocol: (§1) Experiments were performed using four types of gastric cancer cell lines (AGS, SNU-1, KATO-III, and MKN45) to measure the cell proliferation inhibitory ability of each Example compound. For AGS cells, 90 µL of cell suspension was dispensed into a 96-well plate using F-12K (Gibco) medium containing 10 % FBS, followed by incubation in a cell incubator at 37 °C and 5 % CO2. For SNU-1 and MKN45 cells, 90 µL of cell suspension was dispensed into a 96-well plate using RPMI1640 (Gibco) medium containing 10 % FBS, followed by incubation in a cell incubator at 37 °C and 5 % CO2. For KATO-III cells, 90 uL of cell suspension was dispensed into a 96-well plate using IMDM (Gibco) medium containing 10 % FBS, followed by incubation in a cell incubator at 37 °C and 5 % CO2. The next day, each Example compound dissolved and diluted in DMSO across 9 concentration ranges and a DMSO control group were added at 10 µL to each 96-well plate and treated for 72 hours. After completion of the compound treatment, 100 µL of CellTiter Glo (Promega) reagent was added to each well of the 96-well plate, followed by shaking for 10 minutes and standing at room temperature for 10 minutes. Luminescence signals were measured after inserting the 96-well plate into an Envision plate reader (PerkinElmer). Relative IC50 values were calculated by fitting a dose-response curve using XLfit (IDBS Ltd) software.
(§2) The gastric cancer cell proliferation inhibitory activities of the Example compounds measured by the method described above were evaluated according to the following criteria, and the results are presented in Table 16.

KATO-III cells = test: Gastric cancer cell proliferation inhibitory activity (CellTiter Glo), KATO-III; settings: Homo sapiens, KATO III, 72 hours, relative IC50
Protocol: as §1, §2

[1] = system: MDA-MB-231 breast cancer cells; test: Proliferation inhibitory activity assay against MDA-MB-231 breast cancer cells; settings: Homo sapiens, 72 hours, CellTiter Glo, relative IC50
Procedure, shortened: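 Cells grown in L-15 with 10% FBS at 37 °C, 0% CO2, then exposed next day to compounds at 9 concentrations (DMSO vehicle) for 72 h. Viability read by CellTiter Glo luminescence; relative IC50 from dose-response curve fit.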

AGS cells = test: Gastric cancer cell proliferation inhibitory activity (CellTiter Glo), AGS; settings: Homo sapiens, AGS, 72 hours, relative IC50
Protocol: as §1, §2

Sequence of CDK12 (Q9NYV4 whole entry, species assumed): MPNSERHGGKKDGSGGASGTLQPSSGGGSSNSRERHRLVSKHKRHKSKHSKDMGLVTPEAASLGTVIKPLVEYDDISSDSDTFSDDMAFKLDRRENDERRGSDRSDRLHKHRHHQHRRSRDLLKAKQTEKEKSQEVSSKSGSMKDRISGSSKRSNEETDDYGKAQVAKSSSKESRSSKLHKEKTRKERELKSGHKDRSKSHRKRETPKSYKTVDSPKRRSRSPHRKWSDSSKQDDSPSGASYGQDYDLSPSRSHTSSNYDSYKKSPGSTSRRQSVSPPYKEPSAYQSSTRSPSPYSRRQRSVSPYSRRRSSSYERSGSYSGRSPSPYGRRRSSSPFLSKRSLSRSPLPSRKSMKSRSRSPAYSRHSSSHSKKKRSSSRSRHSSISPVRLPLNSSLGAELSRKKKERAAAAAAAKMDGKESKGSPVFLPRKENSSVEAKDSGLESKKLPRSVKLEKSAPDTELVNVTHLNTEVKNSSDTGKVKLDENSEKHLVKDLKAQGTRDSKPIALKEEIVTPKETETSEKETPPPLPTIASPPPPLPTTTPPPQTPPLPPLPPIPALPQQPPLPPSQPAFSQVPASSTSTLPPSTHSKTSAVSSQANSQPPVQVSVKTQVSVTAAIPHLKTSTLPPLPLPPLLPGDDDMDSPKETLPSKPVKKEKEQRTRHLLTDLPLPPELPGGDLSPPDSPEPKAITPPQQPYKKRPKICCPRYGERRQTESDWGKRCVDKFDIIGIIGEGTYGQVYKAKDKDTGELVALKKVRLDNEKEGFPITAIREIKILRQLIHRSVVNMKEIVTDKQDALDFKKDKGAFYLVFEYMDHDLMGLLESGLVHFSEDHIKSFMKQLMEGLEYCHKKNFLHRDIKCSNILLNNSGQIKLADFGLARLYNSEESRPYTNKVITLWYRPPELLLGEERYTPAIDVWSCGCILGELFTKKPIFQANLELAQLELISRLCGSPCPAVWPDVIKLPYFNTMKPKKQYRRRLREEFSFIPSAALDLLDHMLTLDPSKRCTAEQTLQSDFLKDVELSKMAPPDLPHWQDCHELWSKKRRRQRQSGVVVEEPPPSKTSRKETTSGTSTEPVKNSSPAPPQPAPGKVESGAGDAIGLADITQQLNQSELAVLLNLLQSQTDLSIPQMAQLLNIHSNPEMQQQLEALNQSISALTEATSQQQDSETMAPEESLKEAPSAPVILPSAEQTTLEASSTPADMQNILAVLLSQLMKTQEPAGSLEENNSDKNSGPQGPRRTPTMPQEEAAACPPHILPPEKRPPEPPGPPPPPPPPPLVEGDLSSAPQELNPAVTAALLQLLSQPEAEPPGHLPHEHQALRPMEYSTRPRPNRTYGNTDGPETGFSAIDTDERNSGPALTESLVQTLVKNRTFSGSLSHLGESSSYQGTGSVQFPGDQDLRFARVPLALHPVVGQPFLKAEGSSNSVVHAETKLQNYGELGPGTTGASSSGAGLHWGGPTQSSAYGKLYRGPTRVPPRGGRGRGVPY
Sequence of CDK12 (O75909 whole entry partner, species assumed): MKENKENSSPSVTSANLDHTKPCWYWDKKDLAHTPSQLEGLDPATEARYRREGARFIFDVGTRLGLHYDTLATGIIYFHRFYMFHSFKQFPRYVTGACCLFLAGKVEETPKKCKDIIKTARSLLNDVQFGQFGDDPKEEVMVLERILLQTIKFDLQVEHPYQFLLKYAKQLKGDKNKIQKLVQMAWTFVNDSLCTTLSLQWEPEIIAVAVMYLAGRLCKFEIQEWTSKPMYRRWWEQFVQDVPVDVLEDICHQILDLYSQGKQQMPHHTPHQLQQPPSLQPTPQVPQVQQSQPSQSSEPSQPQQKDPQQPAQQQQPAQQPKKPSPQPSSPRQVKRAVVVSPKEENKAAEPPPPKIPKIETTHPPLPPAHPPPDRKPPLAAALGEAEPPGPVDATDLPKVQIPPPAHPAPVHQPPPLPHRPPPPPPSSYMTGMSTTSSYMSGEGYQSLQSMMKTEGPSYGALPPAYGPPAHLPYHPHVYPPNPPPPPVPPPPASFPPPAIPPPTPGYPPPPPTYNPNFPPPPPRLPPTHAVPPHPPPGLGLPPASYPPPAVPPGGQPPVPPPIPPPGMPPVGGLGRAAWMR

IC50 (BT-20 cells)	IC50 (SNU-1)	IC50 (KATO-III cells)	IC50 (AGS cells)	Compound	IC50 (CDK12)	IC50 [1]
≤ 50 nM	≤ 200 nM	≤ 200 nM	≤ 200 nM	CN1CCN(c2cc(NCc3nc4ccc(F)c(F)c4[nH]3)c3ncc(C(F)(F)F)n3n2)CC1 [Example 8, N-((6,7-difluoro-1H-benzo[d]imidazol-2-yl)methyl)-6-(4-methylpiperazin-1-yl)-3-(trifluoromethyl)imidazo[1,2-b]pyridazin-8-amine]	< 300 nM	≤ 50 nM
≤ 50 nM	≤ 200 nM	≤ 200 nM	≤ 200 nM	CN1CCN(c2cc(NCc3nc4cc(Cl)c(Cl)cc4[nH]3)c3ncc(C(F)(F)F)n3n2)CC1 [Example 29, N-((5,6-dichloro-1H-benzo[d]imidazol-2-yl)methyl)-6-(4-methylpiperazin-1-yl)-3-(trifluoromethyl)imidazo[1,2-b]pyridazin-8-amine]	< 300 nM	≤ 50 nM
–	–	–	–	Nc1ncc(-c2cc(NCc3nc4cc(Cl)c(Cl)cc4[nH]3)c3ncc(C(F)(F)F)n3n2)cn1 [Example 40]	< 300 nM	≤ 50 nM

Compound	IC50 (BT-20 cells)	IC50 (SNU-1)	IC50 (KATO-III cells)	IC50 (AGS cells)	IC50 (CDK12)	IC50 [1]
N#CC1CN(c2cc(NCc3nc4cc(Cl)c(Cl)cc4[nH]3)c3ncc(C(F)(F)F)n3n2)C1 [Example 30, 1-(8-(((5,6-dichloro-1H-benzol[d]imidazol-2-yl)methyl)amino)-3-(trifluoromethyl)imidazo[1,2-b]pyridazin-6-yl)azetidine-3-carbonitrile]	≤ 50 nM	≤ 200 nM	≤ 200 nM	≤ 200 nM	< 300 nM	≤ 50 nM
